According to ChEMBL document CHEMBL5365408, “Small molecule inhibitors of PCSK9. SAR investigations of head and amine groups” (Bioorg Med Chem Lett, 2023):

How the values were obtained:
[1] = biological target: Proprotein convertase subtilisin/kexin type 9 (Homo sapiens, UniProt Q8NBP7); assay: Inhibition of full length human PCSK9 expressed in human Huh-7 cells by ELISA analysis; assay type: cell-based
Bone marrow cell = assay: (§1) Cytotoxicity against rat Bone marrow cell assessed as inhibition of cell growth with (R)-4-(3H-[1,2,3]triazolo[4,5-b]pyridin-3-yl)-N-(3-chloropyridin-2-yl)-N-(piperidin-3-yl) benzamide as high potent effect standard by celltiter-glo assay; assay type: toxicity, cell-based; conditions: bone marrow cell
[2] = Selectivity index, ratio of IC50 for cytotoxicity against rat Bone marrow cell assessed as inhibition of cell growth by celltiter-glo assay to IC50 for inhibition of full length human PCSK9 expressed in human Huh-7 cells by ELISA analysis
[3] = Cytotoxicity against rat Bone marrow cell assessed as inhibition of cell growth with puromycin as high potent effect standard by celltiter-glo assay; assay type: toxicity, cell-based; conditions: rat bone marrow cells
[4] = as §1; assay type: toxicity, cell-based; conditions: rat, rat bone marrow cells

Proprotein convertase subtilisin/kexin type 9, sequence (Q8NBP7 31-152 limits assumed): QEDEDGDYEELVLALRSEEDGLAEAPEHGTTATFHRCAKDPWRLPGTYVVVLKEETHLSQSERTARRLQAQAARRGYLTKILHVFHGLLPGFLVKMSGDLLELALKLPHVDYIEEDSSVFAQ
Proprotein convertase subtilisin/kexin type 9, sequence (Q8NBP7 153-692 limits assumed): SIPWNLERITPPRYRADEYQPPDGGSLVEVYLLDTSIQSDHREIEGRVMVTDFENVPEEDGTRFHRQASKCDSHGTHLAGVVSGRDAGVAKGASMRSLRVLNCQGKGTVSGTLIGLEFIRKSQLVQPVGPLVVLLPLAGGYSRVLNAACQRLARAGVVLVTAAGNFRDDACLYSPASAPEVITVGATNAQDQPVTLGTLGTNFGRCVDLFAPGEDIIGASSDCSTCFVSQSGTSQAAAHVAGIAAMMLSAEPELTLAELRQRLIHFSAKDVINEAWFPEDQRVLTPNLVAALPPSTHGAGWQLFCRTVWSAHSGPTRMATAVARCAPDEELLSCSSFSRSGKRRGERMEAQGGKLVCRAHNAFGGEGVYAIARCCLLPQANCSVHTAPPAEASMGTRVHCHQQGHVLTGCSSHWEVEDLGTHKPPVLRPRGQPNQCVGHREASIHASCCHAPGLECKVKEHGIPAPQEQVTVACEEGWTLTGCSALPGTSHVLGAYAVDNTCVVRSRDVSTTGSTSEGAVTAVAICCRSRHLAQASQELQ

Row | Structure (SMILES) | IC50 [1] [µM] | IC50 (Bone marrow cell) [µM] | Ratio IC50 [2] | IC50 [3] [µM] | IC50 [4] [µM]
1 | C[C@@H]1CNC[C@H](N(C(=O)c2ccc(-n3nnc4cccnc43)cc2)c2ncccc2Cl)C1 | 17.1 | 23.3 | – | – | –
2 | C[C@H]1CNC[C@H](N(C(=O)c2ccc(-n3nnc4cccnc43)cc2)c2ncccc2Cl)C1 | 14.1 | 22 | – | – | –
3 | C[C@H]1CNC[C@H](N(C(=O)c2ccc(-n3nnc4cccnc43)cc2)c2ncccc2Cl)C1 (racemic) | – | – | – | – | 37.2
4 | CC(=O)NC[C@H]1CNC[C@H](N(C(=O)c2ccc(-n3nnc4cccnc43)cc2)c2ncccc2Cl)C1 (racemic) | > 20 | – | – | – | –
5 | O=C(c1ccc(-c2cnn3cccnc23)cc1)N(c1ncccc1F)[C@@H]1CCCNC1 | > 20 | – | – | – | –
6 | CCc1cccnc1N(C(=O)c1ccc(-c2cnn3cccnc23)cc1)[C@@H]1CCCNC1 | 3.31 | – | – | – | –
7 | C[C@@H]1CNC[C@H](N(C(=O)c2ccc(-n3nnc4cccnc43)cc2)c2ncccc2Cl)C1 (racemic) | – | – | – | – | 35.6
8 | COc1cccnc1N(C(=O)c1ccc(-c2cnn3cccnc23)cc1)[C@@H]1CCCNC1 | 16.9 | – | – | – | –
9 | CNC(=O)OC[C@H]1CNC[C@H](N(C(=O)c2ccc(-n3nnc4cccnc43)cc2)c2ncccc2Cl)C1 (racemic) | > 20 | – | – | – | –
10 | CO[C@H]1CNC[C@H](N(C(=O)c2ccc(-n3nnc4cccnc43)cc2)c2ncccc2Cl)C1 (racemic) | > 20 | – | – | – | 76.6
11 | O=C(c1ccc(-n2nnc3cccnc32)cc1)N(c1ncccc1Cl)[C@H]1CNC[C@H](CO)C1 (racemic) | 8.9 | – | – | – | 9.9

The next lines start with results.

Row | IC50 [1] [µM] | Structure (SMILES) | IC50 (Bone marrow cell) [µM] | Ratio IC50 [2] | IC50 [3] [µM] | IC50 [4] [µM]
12 | 2.28 | O=C(c1ccc(-n2nnc3cccnc32)cc1)N(c1nccc2c1CCCC2)[C@@H]1CCCNC1 | – | 0.18 | 0.41 | –
13 | 0.73 | O=C(c1ccc(-n2nnc3cccnc32)cc1)N(c1nccc2ccsc12)[C@@H]1CCCNC1 | – | 0.38 | 0.28 | –
14 | 0.58 | Cn1ccc2ccnc(N(C(=O)c3ccc(-n4nnc5cccnc54)cc3)[C@@H]3CCCNC3)c21 | – | 0.07 | 0.04 | –
15 | 1.66 | O=C(c1ccc(-n2nnc3cccnc32)cc1)N(c1ncccc1C(F)(F)F)[C@@H]1CCCNC1 | – | 8.28 | – | 13.8
16 | 5.4 | O=C(c1ccc(-n2nnc3cccnc32)cc1)N(c1ncccc1OC(F)(F)F)[C@@H]1CCCNC1 | – | – | – | 6.44
17 | 1.84 | Cc1nccnc1N(C(=O)c1ccc(-n2nnc3cccnc32)cc1)[C@@H]1CCCNC1 | – | 1.28 | 2.36 | 10.9
18 | 0.62 | Cn1ncc2ccnc(N(C(=O)c3ccc(-n4nnc5cccnc54)cc3)[C@@H]3CCCNC3)c21 | – | 0.29 | 0.18 | –
